The values that follow come from the supplement of paper PMC12494721.

Settings in all cases: incubation time: 27 h, anaerobic, 37 °C
The subject of test [1] is Ruminococcus gnavus DSM 108212. The test is described as follows: fold change of Tryptamine concentration vs plate DMSO controls (fold change (ratio)); higher = more amine produced.
The subject of test [2] is Ruminococcus gnavus DSM 108212. The test is described as follows: growth (OD595) fold change vs plate DMSO controls (fold change (ratio)); higher = more growth.
Test [3] concerns Ruminococcus gnavus DSM 108212. The test is described as follows: fold change of 2-Phenylethylamine concentration vs plate DMSO controls (fold change (ratio)); higher = more amine produced.
The subject of test [4] is Clostridium sporogenes DSM 1664. The test is described as follows: fold change of Tryptamine concentration vs plate DMSO controls (fold change (ratio)); higher = more amine produced.
For test [5] the test system is unchanged. The test is described as follows: growth (OD595) fold change vs plate DMSO controls (fold change (ratio)); higher = more growth.

As to `O=C(N[C@H](CO)[C@H](O)c1ccc([N+](=O)[O-])cc1)C(Cl)Cl` [Chloramphenicol], the “fold change of Tryptamine concentration” value in test [1] (0.6125 µM) was 1.05; in test [1] (1.25 µM), 0.822; in test [1] (2.5 µM) it was 0.595; in test [1] (5 µM), 0.577; in test [1] (10 µM), 0.506; in test [1] (20 µM) it was 0.175. Moreover, the growth in test [2] (0.6125 µM) was found to be 0.858; in test [2] (1.25 µM) it was 0.8; in test [2] (2.5 µM) it was 0.814; in test [2] (5 µM), 0.765; in test [2] (10 µM) it was 0.647; in test [2] (20 µM), 0.204. The “fold change of 2-Phenylethylamine concentration” value in test [3] (0.6125 µM) came to 1; in test [3] (1.25 µM), 0.839; in test [3] (2.5 µM), 0.648; in test [3] (5 µM), 0.601; in test [3] (10 µM), 0.477; in test [3] (20 µM), 0.174.

For `Cc1ncc([N+](=O)[O-])n1C` [Dimetridazole], the “fold change of Tryptamine concentration” value in test [4] (0.6125 µM) was 0.869; in test [4] (1.25 µM), 0.772; in test [4] (2.5 µM) it was 0.685; in test [4] (5 µM), 0.184; in test [4] (10 µM) it was 0.0282; in test [4] (20 µM), 0.0226. Further, the growth in test [5] (0.6125 µM) is 1.15; in test [5] (1.25 µM) it was 1.1; in test [5] (2.5 µM), 0.842; in test [5] (5 µM), 1.1; in test [5] (10 µM), -0.0122; in test [5] (20 µM), -0.0151.

For the compound `C[C@@H](O)[C@H]1C(=O)N2C(C(=O)O)=C(S[C@@H]3CN[C@H](CNS(N)(=O)=O)C3)[C@H](C)[C@H]12` [Doripenem monohydrate], the “fold change of Tryptamine concentration” value worked out at 0.35 in test [1] (0.6125 µM); 0.206 in test [1] (1.25 µM); 0.16 in test [1] (2.5 µM); 0.15 in test [1] (5 µM); 0.121 in test [1] (10 µM); 0.128 in test [1] (20 µM). Besides, the growth worked out at 1.74 in test [2] (0.6125 µM); 0.893 in test [2] (1.25 µM); 2.1 in test [2] (2.5 µM); 0.381 in test [2] (5 µM); 0.355 in test [2] (10 µM); 0.36 in test [2] (20 µM). Further, the “fold change of 2-Phenylethylamine concentration” value turned out to be 0.242 in test [3] (0.6125 µM); 0.158 in test [3] (1.25 µM); 0.118 in test [3] (2.5 µM); 0.119 in test [3] (5 µM); 0.0974 in test [3] (10 µM); 0.111 in test [3] (20 µM).

With `CS(=O)(=O)c1ccc([C@@H](O)[C@@H](CF)NC(=O)C(Cl)Cl)cc1` [Florfenicol], the “fold change of Tryptamine concentration” value worked out at 0.662 in test [1] (0.6125 µM); 0.537 in test [1] (1.25 µM); 0.516 in test [1] (2.5 µM); 0.393 in test [1] (5 µM); 0.261 in test [1] (10 µM); 0.241 in test [1] (20 µM). Also, the “fold change of Tryptamine concentration” value was found to be 0.86 in test [4] (0.6125 µM); 0.636 in test [4] (1.25 µM); 0.0416 in test [4] (2.5 µM); 0.0331 in test [4] (5 µM); 0.0302 in test [4] (10 µM); 0.0273 in test [4] (20 µM). Further, the growth is 0.826 in test [2] (0.6125 µM); 0.757 in test [2] (1.25 µM); 0.681 in test [2] (2.5 µM); 0.386 in test [2] (5 µM); 0.252 in test [2] (10 µM); 0.0641 in test [2] (20 µM). Besides, the growth in test [5] (0.6125 µM) was 1.14; in test [5] (1.25 µM) it was 0.685; in test [5] (2.5 µM), 0.0218; in test [5] (5 µM), -0.0331; in test [5] (10 µM) it was -0.0315; in test [5] (20 µM), -0.0323. Further, the “fold change of 2-Phenylethylamine concentration” value in test [3] (0.6125 µM) amounted to 0.644; in test [3] (1.25 µM), 0.572; in test [3] (2.5 µM), 0.509; in test [3] (5 µM), 0.311; in test [3] (10 µM) it was 0.203; in test [3] (20 µM), 0.199.

Consider `CC1CCc2cc(F)cc3c(=O)c(C(=O)O)cn1c23` (stereo not drawn) [Flumequine], for which the “fold change of Tryptamine concentration” value in test [4] (0.6125 µM) is 1.03; in test [4] (1.25 µM), 1.06; in test [4] (2.5 µM) it was 1.11; in test [4] (5 µM), 0.996; in test [4] (10 µM), 0.569; in test [4] (20 µM), 0.0662. Further, the growth in test [5] (0.6125 µM) turned out to be 1.02; in test [5] (1.25 µM), 1.04; in test [5] (2.5 µM), 1; in test [5] (5 µM), 0.948; in test [5] (10 µM), 0.659; in test [5] (20 µM), 0.202.

For the compound `COc1c(N2C[C@@H]3CCCN[C@@H]3C2)c(F)cc2c(=O)c(C(=O)O)cn(C3CC3)c12` [Moxifloxacin], the “fold change of Tryptamine concentration” value was determined as 2.33 in test [1] (0.6125 µM); 2.83 in test [1] (1.25 µM); 3.17 in test [1] (2.5 µM); 3.27 in test [1] (5 µM); 2 in test [1] (10 µM); 0.511 in test [1] (20 µM). Besides, the growth in test [2] (0.6125 µM) amounted to 0.813; in test [2] (1.25 µM), 0.562; in test [2] (2.5 µM), 0.528; in test [2] (5 µM), 0.491; in test [2] (10 µM) it was 0.279; in test [2] (20 µM), 0.119. For the same compound, the “fold change of 2-Phenylethylamine concentration” value is 2.13 in test [3] (0.6125 µM); 2.4 in test [3] (1.25 µM); 2.64 in test [3] (2.5 µM); 2.66 in test [3] (5 µM); 1.29 in test [3] (10 µM); 0.274 in test [3] (20 µM).

`OC[C@H]1O[C@@H](n2cnc3cncnc32)[C@H](O)[C@@H]1O` [Nebularine]: the “fold change of Tryptamine concentration” value worked out at 0.84 in test [1] (0.6125 µM); 0.755 in test [1] (1.25 µM); 0.503 in test [1] (2.5 µM); 0.464 in test [1] (5 µM); 0.552 in test [1] (10 µM); 0.585 in test [1] (20 µM). Besides, the growth in test [2] (0.6125 µM) came out at 0.842; in test [2] (1.25 µM), 0.629; in test [2] (2.5 µM), 0.339; in test [2] (5 µM), 0.336; in test [2] (10 µM), 0.336; in test [2] (20 µM) it was 0.333. The “fold change of 2-Phenylethylamine concentration” value came to 0.725 in test [3] (0.6125 µM); 0.65 in test [3] (1.25 µM); 0.367 in test [3] (2.5 µM); 0.321 in test [3] (5 µM); 0.413 in test [3] (10 µM); 0.434 in test [3] (20 µM).

As for `CO[C@H]1/C=C/O[C@@]2(C)Oc3c(C)c(O)c4c(O)c(c5c(nc6cc(C)ccn65)c4c3C2=O)NC(=O)/C(C)=C\C=C\[C@H](C)[C@H](O)[C@@H](C)[C@@H](O)[C@@H](C)[C@H](OC(C)=O)[C@@H]1C` [Rifaximin], the “fold change of Tryptamine concentration” value was 0.601 in test [4] (0.6125 µM); 0.0574 in test [4] (1.25 µM); 0.03 in test [4] (2.5 µM); 0.0292 in test [4] (5 µM); 0.0294 in test [4] (10 µM); 0.0294 in test [4] (20 µM). Further, the growth in test [5] (0.6125 µM) is 1.05; in test [5] (1.25 µM), 0.257; in test [5] (2.5 µM), -0.0262; in test [5] (5 µM) it was -0.0255; in test [5] (10 µM), -0.0254; in test [5] (20 µM) it was -0.0277.
